Source: patent US20150105252A1, “SUBSTITUTED PYRAZOLES AS HERBICIDES” (E I DU PONT DE NEMOURS AND COMPANY, priority 2013, published 2015)

Assays:
soybean = assay: Test C preemergence; assay type: in vivo, Glycine max; details: for Plant response rating (scale of 0 to 100), Soybean: Preemergence, 250 g ai/ha; for Soybean plant response rating: preemergence
Summary of the method: (§1)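 Visual control ratings on a 0–100 scale (100 = complete control) made against untreated controls after 13 to 15 days in greenhouse. Compounds applied in surfactant-containing solvent mixture, either preemergence to loam/sand-sown seeds or postemergence to 1- to 4-leaf plants (2–18 cm) in peat medium.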

corn = assay: Test C postemergence; assay type: in vivo, Zea mays; details: for Plant response rating (scale of 0 to 100 where 0 is no effect and 100 is complete control), Corn: Postemergence, 31 g ai/ha, visually evaluated after 13 to 15 days; for Corn plant response rating / Plant response rating, Corn: postemergence; for Corn plant response rating: 62 g ai/ha, scale 0 to 100
Summary of the method: as §1

velvetleaf [1] = assay: Test A preemergence; assay type: in vivo, Abutilon theophrasti; details: preemergence
Summary of the method: (§2)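 After sowing in a sand–loam mix, pots received compound preemergence by directed soil spray, or postemergence once plants reached the one- to two-leaf stage (2–10 cm). Formulation contained surfactant in a non-phytotoxic solvent. Injury was scored visually after ~10 greenhouse days, 0–100 scale.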

wheat = assay: Test C preemergence; assay type: in vivo, Triticum aestivum; details: for Plant response rating (scale of 0 to 100), Wheat: Preemergence, 250 g ai/ha; for Wheat plant response rating: preemergence
Summary of the method: as §1

johnsongrass [2] = assay: Test C postemergence; assay type: in vivo, Sorghum halepense; details: for Plant response rating (scale of 0 to 100 where 0 is no effect and 100 is complete control), Johnsongrass: Postemergence, 31 g ai/ha, visually evaluated after 13 to 15 days; for Johnsongrass plant response rating / Plant response rating, Johnsongrass: postemergence; for Johnsongrass plant response rating: 62 g ai/ha, scale 0 to 100
Summary of the method: as §1

barnyardgrass = assay: Test A preemergence; assay type: in vivo, Echinochloa crus-galli; details: preemergence
Summary of the method: as §2

lambsquarters = assay: Test C postemergence; assay type: in vivo, Chenopodium album; details: for Plant response rating (scale of 0 to 100 where 0 is no effect and 100 is complete control), Lambsquarters: Postemergence, 31 g ai/ha, visually evaluated after 13 to 15 days; for Lambsquarters plant response rating / Plant response rating, Lambsquarters: postemergence; for Lambsquarters plant response rating: 62 g ai/ha, scale 0 to 100
Summary of the method: as §1

pigweed [3] = assay: Test A preemergence; assay type: in vivo, Amaranthus retroflexus; details: preemergence
Summary of the method: as §2

ragweed = assay: Test C preemergence; assay type: in vivo, Ambrosia elation; details: for Plant response rating (scale of 0 to 100), Ragweed: Preemergence, 250 g ai/ha; for Ragweed plant response rating: preemergence
Summary of the method: as §1

johnsongrass [4] = assay: Test C preemergence; assay type: in vivo, Sorghum halepense; details: for Plant response rating (scale of 0 to 100), Johnsongrass: Preemergence, 250 g ai/ha; for Johnsongrass plant response rating: preemergence
Summary of the method: as §1

blackgrass = assay: Test C preemergence; assay type: in vivo, Alopecurus myosuroides; details: for Plant response rating (scale of 0 to 100), Blackgrass: Preemergence, 250 g ai/ha; for Blackgrass plant response rating: preemergence
Summary of the method: as §1

foxtail, giant = assay: Test C preemergence; assay type: in vivo, Setaria faberii; details: for Plant response rating (scale of 0 to 100), Foxtail, Giant: Preemergence, 250 g ai/ha; for Foxtail, Giant plant response rating: preemergence
Summary of the method: as §1

velvetleaf [5] = assay: Test A postemergence; assay type: in vivo, Abutilon theophrasti
Summary of the method: as §2

pigweed [6] = assay: Test A postemergence; assay type: in vivo, Amaranthus retroflexus
Summary of the method: as §2

waterhemp = assay: Test C postemergence; assay type: in vivo, Amaranthus rudis; details: for Plant response rating (scale of 0 to 100 where 0 is no effect and 100 is complete control), Waterhemp: Postemergence, 31 g ai/ha, visually evaluated after 13 to 15 days; for Waterhemp plant response rating / Plant response rating, Waterhemp: postemergence; for Waterhemp plant response rating: 62 g ai/ha, scale 0 to 100
Summary of the method: as §1

oilseed rape = assay: Test C preemergence; assay type: in vivo, Brassica napus; details: for Plant response rating (scale of 0 to 100), Oilseed Rape: Preemergence, 250 g ai/ha; for Oilseed Rape plant response rating: preemergence
Summary of the method: as §1

[7] = 31 g ai/ha, visual rating, scale 0 to 100 (0 no effect, 100 complete control), 13 to 15 days
[8] = 62 g ai/ha, scale 0 to 100 (0 no effect, 100 complete control), 13 to 15 days
[9] = 125 g ai/ha, scale 0 to 100, 0 is no effect, 100 is complete control
[10] = 250 g ai/ha, scale 0 to 100 (0 no effect, 100 complete control)
[11] = 125 g ai/ha, scale 0 to 100, 0 no effect, 100 complete control
[12] = 125 g ai/ha, visual injury, 0 to 100 scale, approx. 10 days
[13] = 500 g ai/ha, visual injury after approx. 10 days, 0 to 100 scale (0 no effect, 100 complete control)
[14] = Postemergence, 500 g ai/ha, visual rating after approx. 10 days, 0 to 100 scale (0 no effect, 100 complete control)
[15] = postemergence, 125 g ai/ha, about 10 days, visual rating on 0 to 100 scale (0 no effect, 100 complete control)

CCc1cc(C(=O)NCC(F)(F)F)nn1Cc1nc(C(F)(F)F)nn1C [Compound 107]
Plant response rating (scale of 0 to 100), Soybean (soybean): 95 | Soybean plant response rating (soybean; [7]): 15 | Soybean plant response rating (soybean; [8]): 95 | Soybean plant response rating (soybean; [9]): 95 | Plant response rating (scale of 0 to 100 where 0 is no effect and 100 is complete control), Corn (corn): 5 | Corn plant response rating (corn): 5 | Plant response rating, Corn (corn; [10]): 40 | Plant response rating, Corn (corn; [11]): 5 | Velvetleaf plant response rating (velvetleaf [1]; [12]): 90 | Velvetleaf plant response rating (velvetleaf [1]; [13]): 100 | Plant response rating (scale of 0 to 100), Wheat (wheat): 50 | Wheat plant response rating (wheat; [7]): 5 | Wheat plant response rating (wheat; [8]): 15 | Wheat plant response rating (wheat; [9]): 50 | Plant response rating (scale of 0 to 100 where 0 is no effect and 100 is complete control), Johnsongrass (johnsongrass [2]): 0 | Johnsongrass plant response rating (johnsongrass [2]): 0 | Plant response rating, Johnsongrass (johnsongrass [2]; [10]): 70 | Plant response rating, Johnsongrass (johnsongrass [2]; [11]): 5 | Barnyardgrass plant response rating (barnyardgrass; [12]): 100 | Barnyardgrass plant response rating (barnyardgrass; [13]): 100 | Plant response rating (scale of 0 to 100 where 0 is no effect and 100 is complete control), Lambsquarters (lambsquarters): 40 | Lambsquarters plant response rating (lambsquarters): 40 | Plant response rating, Lambsquarters (lambsquarters; [10]): 90 | Plant response rating, Lambsquarters (lambsquarters; [11]): 70 | Pigweed plant response rating (pigweed [3]; [12]): 100 | Pigweed plant response rating (pigweed [3]; [13]): 100 | Plant response rating (scale of 0 to 100), Ragweed (ragweed): 100 | Ragweed plant response rating (ragweed; [7]): 50 | Ragweed plant response rating (ragweed; [8]): 98 | Ragweed plant response rating (ragweed; [9]): 100 | Plant response rating (scale of 0 to 100), Johnsongrass (johnsongrass [4]): 100 | Johnsongrass plant response rating (johnsongrass [4]; [7]): 30 | Johnsongrass plant response rating (johnsongrass [4]; [8]): 65 | Johnsongrass plant response rating (johnsongrass [4]; [9]): 90 | Plant response rating (scale of 0 to 100), Blackgrass (blackgrass): 100 | Blackgrass plant response rating (blackgrass; [7]): 95 | Blackgrass plant response rating (blackgrass; [8]): 100 | Blackgrass plant response rating (blackgrass; [9]): 100 | Plant response rating (scale of 0 to 100), Foxtail, Giant (foxtail, giant): 100 | Foxtail, Giant plant response rating (foxtail, giant; [7]): 100 | Foxtail, Giant plant response rating (foxtail, giant; [8]): 100 | Foxtail, Giant plant response rating (foxtail, giant; [9]): 100 | Velvetleaf plant response rating (velvetleaf [5]; [14]): 100 | Velvetleaf plant response rating (velvetleaf [5]; [15]): 80 | Pigweed plant response rating (pigweed [6]; [14]): 100 | Pigweed plant response rating (pigweed [6]; [15]): 100 | Plant response rating (scale of 0 to 100 where 0 is no effect and 100 is complete control), Waterhemp (waterhemp): 5 | Waterhemp plant response rating (waterhemp): 40 | Plant response rating, Waterhemp (waterhemp; [10]): 80 | Plant response rating, Waterhemp (waterhemp; [11]): 40 | Plant response rating (scale of 0 to 100), Oilseed Rape (oilseed rape): 100 | Oilseed Rape plant response rating (oilseed rape; [7]): 98 | Oilseed Rape plant response rating (oilseed rape; [8]): 100 | Oilseed Rape plant response rating (oilseed rape; [9]): 100

CCCNC(=O)c1cc(CC)n(Cc2nc(C(F)(F)F)nn2C)n1 [Compound 109]
Plant response rating (scale of 0 to 100), Soybean (soybean): 98 | Soybean plant response rating (soybean; [7]): 70 | Soybean plant response rating (soybean; [8]): 95 | Soybean plant response rating (soybean; [9]): 98 | Plant response rating (scale of 0 to 100 where 0 is no effect and 100 is complete control), Corn (corn): 5 | Corn plant response rating (corn): 10 | Plant response rating, Corn (corn; [10]): 15 | Plant response rating, Corn (corn; [11]): 15 | Velvetleaf plant response rating (velvetleaf [1]; [12]): 70 | Velvetleaf plant response rating (velvetleaf [1]; [13]): 100 | Plant response rating (scale of 0 to 100), Wheat (wheat): 85 | Wheat plant response rating (wheat; [7]): 0 | Wheat plant response rating (wheat; [8]): 15 | Wheat plant response rating (wheat; [9]): 85 | Plant response rating (scale of 0 to 100 where 0 is no effect and 100 is complete control), Johnsongrass (johnsongrass [2]): 5 | Johnsongrass plant response rating (johnsongrass [2]): 5 | Plant response rating, Johnsongrass (johnsongrass [2]; [10]): 10 | Plant response rating, Johnsongrass (johnsongrass [2]; [11]): 5 | Barnyardgrass plant response rating (barnyardgrass; [12]): 100 | Barnyardgrass plant response rating (barnyardgrass; [13]): 100 | Plant response rating (scale of 0 to 100 where 0 is no effect and 100 is complete control), Lambsquarters (lambsquarters): 45 | Lambsquarters plant response rating (lambsquarters): 45 | Plant response rating, Lambsquarters (lambsquarters; [10]): 85 | Plant response rating, Lambsquarters (lambsquarters; [11]): 65 | Pigweed plant response rating (pigweed [3]; [12]): 100 | Pigweed plant response rating (pigweed [3]; [13]): 100 | Plant response rating (scale of 0 to 100), Ragweed (ragweed): 100 | Ragweed plant response rating (ragweed; [7]): 100 | Ragweed plant response rating (ragweed; [8]): 100 | Ragweed plant response rating (ragweed; [9]): 100 | Plant response rating (scale of 0 to 100), Johnsongrass (johnsongrass [4]): 100 | Johnsongrass plant response rating (johnsongrass [4]; [7]): 80 | Johnsongrass plant response rating (johnsongrass [4]; [8]): 90 | Johnsongrass plant response rating (johnsongrass [4]; [9]): 100 | Plant response rating (scale of 0 to 100), Blackgrass (blackgrass): 100 | Blackgrass plant response rating (blackgrass; [7]): 100 | Blackgrass plant response rating (blackgrass; [8]): 100 | Blackgrass plant response rating (blackgrass; [9]): 100 | Plant response rating (scale of 0 to 100), Foxtail, Giant (foxtail, giant): 100 | Foxtail, Giant plant response rating (foxtail, giant; [7]): 100 | Foxtail, Giant plant response rating (foxtail, giant; [8]): 100 | Foxtail, Giant plant response rating (foxtail, giant; [9]): 100 | Velvetleaf plant response rating (velvetleaf [5]; [14]): 90 | Velvetleaf plant response rating (velvetleaf [5]; [15]): 60 | Pigweed plant response rating (pigweed [6]; [14]): 90 | Pigweed plant response rating (pigweed [6]; [15]): 90 | Plant response rating (scale of 0 to 100 where 0 is no effect and 100 is complete control), Waterhemp (waterhemp): 35 | Waterhemp plant response rating (waterhemp): 35 | Plant response rating, Waterhemp (waterhemp; [10]): 75 | Plant response rating, Waterhemp (waterhemp; [11]): 60 | Plant response rating (scale of 0 to 100), Oilseed Rape (oilseed rape): 100 | Oilseed Rape plant response rating (oilseed rape; [7]): 40 | Oilseed Rape plant response rating (oilseed rape; [8]): 100 | Oilseed Rape plant response rating (oilseed rape; [9]): 100
